{"source": "patent US20240415828A1", "about": "“TLR7 AGONIST AND COMBINATIONS FOR CANCER TREATMENT” (BIONTECH SE, priority 2021, published 2024)", "key": {"[1]": {"test_system": "CT26 colon carcinoma cells", "assay": "CT26 tumor model, BNT411 alone (Example 3)", "assay_type": "in vivo, mouse", "experimental": "FIG. 4. Anti-tumoral efficacy of BNT411 alone in a tumor mouse model. Mice (n=12 or 13 per group) subcutaneously inoculated with 5×10^5 CT26 colon carcinoma cells were used as tumor mouse model. BNT411 was administered i.v. at a dose level of 3 mg/kg eight times with 4 to 5 days interval (on days 14, 19, 23, 28, 33, 37, 42, and 47). A control group (n=13) received vehicle alone. Adaptive immunity was evaluated by analyzing gp70-antigen-specific T cell populations in blood and splenocytes 3 and 5 weeks after the first study drug administration. (A) Dosing schedule. (B) Graph showing the tumor volumes vs. days after inoculation. Group mean tumor volumes for all live animals are shown. Additionally, tumor volumes of animals that were euthanized due to tumor load were carried forward for as long as they were larger than the group median tumor volume (SEM: standard error of the mean; LOCF: last observation carried forward values).\nSerum levels of IFNα were measured by sandwich ELISA (Pbl Assay Systems) according to manufacturer's instructions.\nBALB/c mice were inoculated s.c. with 2.5×10^5−5×10^5 CT26-WT into the flank, respectively. Once tumors reached palpable sizes, mice were randomly divided into treatment and control groups. Tumor volume was measured unblinded with a caliper and calculated using the formula (a×b^2)/2 (a being the largest and b being the smallest diameter of the tumor). Tumor growth was documented as mean tumor size with standard error disregarding single distant outliers. Treatment was initiated after 7-10 d with tumors having reached an average volume of about 10 mm^3. 3 mg/kg (75 μg/mouse; BALB/c mice) BNT411 was administered by i.v. injection to the retro-orbital venous plexus. Control groups received an equal volume of 100 μl saline vehicle (0.1% 1 M HCl, 0.1% 1 M NaOH, 99.8% isotonic NaCl solution pH 5.63).\nEight doses of BNT411 were administered i.v. at a dose level of 3 mg/kg eight times with 4 to 5 days interval (on days 14, 19, 23, 28, 33, 37, 42, and 47); cf., FIG. 4A. […] A control group (n=13) received vehicle alone. Adaptive immunity was evaluated by analyzing gp70-antigen-specific T cell populations in blood and splenocytes 3 and 5 weeks after the first study drug administration. Gp70 is the immune dominant CD8^+ T-cell recognized antigen of the CT26 tumor model."}, "Human PBMCs": {"test_system": "Human PBMCs", "assay": "In vitro human PBMC stimulation assay (IFNα, multiplexed CBA)", "assay_type": "cell-based", "conditions": "24 h after stimulation, n=5", "experimental": "FIG. 1. In vitro human PBMC stimulation assay. […] Data shown as mean±standard deviation (SD), n=5.\n(§1) After performing a serial dilution of the test compounds (such as BNT411), 5 μL of each sample is transferred/pipetted to single wells of a 96-well-plate. As negative control, plasma which has been prepared from whole blood of each donor is used. Subsequently, 245 μL of RPMI-medium is added to each well, leading to a 1:50 dilution of each sample, named spiking solutions. The heparinized whole blood is pipetted to separate 96-well-plate. After seeding whole blood, the prepared spiking solutions are added: 190 μL of whole blood is seeded in each well and 10 μL of spiking solutions is added to get a final volume of 200 μL per well and additional 1:20 dilution of all samples. Finally, the plates are incubated at 37° C. and 5% CO2. After 24 h incubation the plates are centrifuged at 500×g for 5 min. The plasma of all samples is harvested, transferred to a new 96-well-plate and frozen at −15° C. to −25° C. until performing the CBA, but at least 3 h.\nThe CBA is performed with the frozen/thawed plasma samples according to the manufacturer's instructions for ProCarta multiplex kits. For evaluation of cytokine concentrations, assay duplicates of all samples are measured by using the luminex system. […]"}, "Human whole blood": {"test_system": "Human whole blood", "assay": "Cytokine release in human whole blood treated in vitro (CBA)", "assay_type": "cell-based", "experimental": "FIG. 7. Release of certain cytokines upon treatment of whole blood from human donors with BNT411 at various concentrations. Whole blood drawn from healthy human volunteers was treated in vitro with BNT411 to investigate the induction of the following cytokines/chemokines: IFNα, IP-10, IL-6, and TNFα. BNT411 concentrations ranging from 0.1 nM (1×) to 7.5 μM (75000×). The fold increase to baseline is shown for each cytokine and BNT411 concentration tested.\nas §1\nThe CBA is performed with the frozen/thawed plasma samples according to the manufacturer's instructions for ProCarta multiplex kits. For evaluation of cytokine concentrations, assay duplicates of all samples are measured by using the luminex system. After checking standard curves with the instrument control system (Bio-Plex Manager 4.1.1) the raw data are transferred to excel. Graphical analysis is performed with GraphPad Prism 6.\nHuman whole blood was obtained from healthy donors and treated in vitro with BNT411 (concentration range: 0.1 nM to […]). 24 h after stimulation secretion of several cytokines, including IFNα, IP-10, IL-6, and TNFα, was analyzed by a multiplexed CBA."}}, "data": [{"compound": "COCCc1nc2c(N)nc3ccccc3c2n1CCCCN(C(C)=O)C1CCOCC1", "note": "[BNT411]", "values": [{"measurement": "tumor growth inhibition, test/control value", "setting": "[1]; 3 mg/kg i.v. eight times, day 35", "value": 43.3, "unit": "%"}, {"measurement": "animals still alive", "setting": "[1]; 3 mg/kg i.v., day 49, last day of the experiment", "value": "8 of 13"}, {"measurement": "increase in blood IFNα levels compared with the control group", "setting": "[1]; 1 h after the first dosing, 3 mg/kg i.v.", "value": 50, "unit": "fold"}, {"measurement": "frequency of gp70+ T-cells in blood", "setting": "[1]; day 35", "value": 8.72, "unit": "%"}, {"measurement": "frequency of gp70+ T-cells in splenocytes", "setting": "[1]; day 50", "value": 0.76, "unit": "%"}, {"measurement": "blood parameters (alanine transaminase, aspartate transaminase, creatine kinase, glutamate dehydrogenase, lactate dehydrogenase, bilirubin) vs control group", "setting": "[1]; serum, day 19", "value": "comparable"}, {"measurement": "amount of IFNα induced compared to imiquimod (R837), resiquimod (R848) and 852A", "setting": "Human PBMCs", "value": "significantly higher amount"}, {"measurement": "concentrations inducing IFNα, fold lower compared to imiquimod (R837), resiquimod (R848) and 852A", "setting": "Human PBMCs", "value": "10 to 30", "unit": "fold"}, {"measurement": "concentrations required for inducing secretion of pyrogenic proinflammatory cytokines (e.g., TNFα) relative to IFNα", "setting": "Human whole blood; FIG. 7", "value": "up to two orders of magnitude higher"}, {"measurement": "IFNα secretion induced at fold lower concentrations than needed for induction of IL-6, TNFα, and IL-10", "setting": "Human whole blood; human whole blood, 24 h", "value": "5- to 25 fold"}, {"measurement": "concentration at which IL-6, TNFa and IL-10 start to be induced", "setting": "Human whole blood; human whole blood, 24 h", "value": "about 0.06 μM"}, {"measurement": "concentration at which significant IFNα release was induced", "setting": "Human whole blood; human whole blood, 24 h", "value": 0.012, "unit": "µM"}, {"measurement": "concentration for maximal induction of IFNα, fold lower than for maximal induction of IL-6, TNFα, and IL-10", "setting": "Human whole blood; human whole blood, 24 h", "value": "25- to 100 fold"}]}]}
